In patent US4804651A, “Methods and compositions for the treatment of psoriasis” (Board of Regents, The University of Texas System, priority 1987, dated 1989):
Like-named read-outs stand apart in the source and are kept apart here.

How the values were obtained:
[1] = cited from earlier work
[2] = Progression of AIDS in the individual treated for psoriasis; assay type: in vivo, human; details: 800 mg orally per day
Text: Of the following examples, examples I through IV disclose toxicity data obtained from the manufacturer of AZT, Burroughs Wellcome Drug Co., developed during the course of obtaining FDA approval for use of the drug in the treatment of AIDS. However, treatment protocols effective in treating psoriasis are similar.
An individual developed severe psoriasis and AIDS-related complex (ARC). As their immunity diminished over the next eight months to a T4 count of 14/mm^3, the psoriasis became more extensive, including 60% of their body, all nails and digits.
Ten months after developing the ARC and psoriasis, the individual developed Pneumocystis carinii pneumonia (PCP) and esophageal candidiasis.

rats [3] = details: intravenous (IV); cited from earlier work
mice = details: intravenous (IV); cited from earlier work
dogs = details: IV dose levels up to 85 mg/kg/day for 2 weeks; cited from earlier work
rats [4] = details: IV dose levels up to 150 mg/kg/day for one month; cited from earlier work
rats [5] = details: oral, up to 500 mg/kg/day; cited from earlier work
Beagle dogs = details: cited from earlier work
Cynomolgus monkeys [6] = details: cited from earlier work
Cynomolgus monkeys [7] = details: cited from earlier work; remark: listed apart in the source
rats [8] = details: cited from earlier work
pregnant rats = details: up to 500 mg/kg oral, gestation day 6 through 15; cited from earlier work
[9] = system: cultured human lymphocytes; details: in vitro; cited from earlier work
[10] = in vivo; cited from earlier work
[11] = system: patients with AIDS OR AIDS-related complex and HTLV-III/LAV viremia; details: cited from earlier work
[12] = system: patients (AIDS) recovered from Pneumocystis carinii pneumonia (PCP) and late AIDS-Related Complex (ARC); details: cited from earlier work
[13] = Treatment of severe psoriasis in an individual with AIDS-related complex
[14] = one female dog, sacrificed on day 14

Cc1cn([C@H]2C[C@H](N=[N+]=[N-])[C@@H](CO[C@@H]3O[C@H](C(=O)O)[C@@H](O)[C@H](O)[C@H]3O)O2)c(=O)[nH]c1=O [GAZT, 5'-glucuronide of AZT]
activity of the metabolite ([1]; in vivo): inactive
metabolite identification ([1]; plasma and urine): major plasma and urinary metabolite
clearance from plasma (metabolite) ([1]; plasma): rapidly cleared from plasma
plasma level relative to the corresponding AZT level ([1]; plasma): 2-3 ×

Cc1cn([C@H]2C[C@H](N=[N+]=[N-])[C@@H](CO)O2)c(=O)[nH]c1=O [azidothymidine, 3'-azido-3'-deoxythymidine]
efficacy in relieving the progression of AIDS [2]: no efficacy in relieving the progression of this individual's AIDS
LD50 (rats [3]): greater than 70 mg/kg
LD50 (mice): greater than 70 mg/kg
alterations (dogs): No significant alterations were seen
changes (rats [4]): no changes were noted
histologic changes in liver and kidney (rats [5]): very minimal histologic changes in the liver and kidney of a few animals were observed
leukopenia and thrombocytopenia (Beagle dogs; Beagle dogs, oral, all dose levels (125, 250, 500 mg/kg/day), 2 weeks): Moderate to marked leukopenia and thrombocytopenia was noted at all dose levels
vomiting and fecal alterations (Beagle dogs; Beagle dogs, oral, high doses, daily for 2 weeks): Vomiting and fecal alterations (with blood) were seen in dogs receiving high doses
bone marrow and lymphoid tissue findings (Beagle dogs; Beagle dogs, oral, further studies): hypocellularity of the bone marrow; hypoactive lymphoid tissues were also noted
gross gastrointestinal findings (Beagle dogs; high dose dogs and a mid-dose female, high dose female): hemorrhage in the gastrointestinal tract in the high dose dogs and a mid-dose female, as well as a maturational defect with mucosal atrophy in the intestinal tract of the high dose female were observed
alkaline phosphatase, BUN, and creatinine (Beagle dogs; [14]): alkaline phosphatase, BUN, and creatinine were elevated
weight loss (Beagle dogs; [14]): significant weight loss
vomiting (Cynomolgus monkeys [6]; Cynomolgus monkeys, high dose male, oral, 2 weeks): frequent vomiting in the high dose male
RBC, HCT, Hgb (Cynomolgus monkeys [6]; all treatment levels (125, 250, 500 mg/kg/day), oral 2 weeks, values still within normal limits): a slight nondose-related decrease (values still within normal limits) in RBC, HCT, Hgb at all treatment levels
SGPT (Cynomolgus monkeys [6]; treated males and the high dose female, values still within normal limits): a slight increase in SGPT (Values still within normal limits) in treated males and the high dose female
recovery of hematology values (Cynomolgus monkeys [7]; 26-39 day post-dosing recovery period): These values returned to normal limits during the 26-39 day post-dosing recovery period
RBCs, hemoglobin, and hematocrit (Cynomolgus monkeys [7]; 34, 100, or 300 mg/kg by gavage, day 21): dose-related decreases in RBCs, hemoglobin, and hematocrit at day 21
hemoglobin and hematocrit (Cynomolgus monkeys [7]; remainder of treatment period after day 21): hemoglobin and hematocrit remained stable
RBCs (Cynomolgus monkeys [7]; until the end of treatment): further reduced until the end of treatment
glucose (rats [8]; high dose female rats, day 89): A mild increase in glucose was observed only in high dose female rats on day 89
clinical observation (staining of the anogenital area) (rats [8]; high dose male rats): occasional staining of the anogenital area in high dose male rats
SGOT (rats [8]; high dose rats at various times): a mild decrease in SGOT in high dose rats at various times
hematologic changes or gross pathologic changes (rats [8]; rats, 13 weeks oral): no hematologic changes or gross pathologic changes
treatment related deaths (rats [8]; rats, 56, 167 or 500 mg/kg/day by gavage, 13 weeks): no treatment related deaths
maternal weight (pregnant rats): a slight decrease in maternal weight was noted
clastogenicity [9]: clastogenic
Cmax ([1]; Group A, IV, 1.0 mg/kg Q 8 hr): 0.44 ± 0.14 microgram/ml
Cmax ([1]; Group A, oral, 2.0 mg/kg Q 8 hr): 0.53 ± 0.11 microgram/ml
Cmax ([1]; Group B, IV, 2.5 mg/kg Q 8 hr): 1.17 ± 0.49 microgram/ml
Cmax ([1]; Group B, oral, 5.0 mg/kg Q 8 hr): 1.37 ± 0.58 microgram/ml
Cmax ([1]; Group C, IV, 2.5 mg/kg Q 4 hr): 1.06 ± 0.03 microgram/ml
Cmax ([1]; Group C, oral, 5.0 mg/kg Q 4 hr): 1.57 ± 0.81 microgram/ml
Cmax ([1]; Group D, IV, 5.0 mg/kg Q 4 hr): 2.28 ± 0.31 microgram/ml
Cmax ([1]; Group D, oral, 10.0 mg/kg Q 4 hr): 3.14 ± 0.73 microgram/ml
Cmax ([1]; Group E, IV, 7.5 mg/kg Q 4 hr): 4.71 ± 0.79 microgram/ml
Cmax ([1]; Group E, oral, 15.0 mg/kg Q 4 hr): 10.40 ± 3.47 microgram/ml
total body clearance ([1]; IV doses from 1.0 to 5.0 mg/kg): approximately 1900 ml/min/70 kg
dose excreted unchanged in the urine as AZT ([1]; IV dosing): about 25%
plasma decay after the end of infusion ([1]; IV): biexponential decay after the end of infusion indicating two-compartmental pharmacokinetics
mean half-life ([1]; all dose levels, IV and oral dosing): approximately 1.0 hr
dose proportionality of Cmax and AUC ([1]; between 5.0 and 7.5 mg/kg IV and 10.0 and 15 mg/kg oral): a disproportional increase in peak concentrations (Cmax) and area under the plasma-concentration time curve (AUC)
drug or metabolite accumulation ([1]; chronic IV or oral dosing): No unexpected drug or metabolite accumulation was observed
dose proportionality of concentrations ([1]; doses to 5.0 mg/kg IV and 10 mg/kg oral): increased proportionally with doses to 5.0 and 10 mg/kg, for IV and oral administration respectively, indicating dose-independent kinetics up to these dosages
renal clearance ([1]; estimated): about 500 ml/min
bioavailability ([1]; oral, all dose levels): 60-70%
cause of incomplete bioavailability ([1]; oral): appears to be due to first-pass metabolism, rather than reduced absorption
side effects [10]: hematologic abnormalities such as anemia, neutropenia, bone marrow toxicity, headache, mild CNS symptoms, insomnia
mild confusion or anxiety (number of patients) ([11]; 29 patients): Three
transient elevations in transaminases (number of patients) ([11]; 29 patients): Five
transient erythematous rash (number of patients) ([11]; 29 patients): one
decline in hemoglobin ([11]; by six weeks): all patients had some decline in hemoglobin by six weeks, the change was not proportional to the starting dose
deaths ([11]; during the year since the trial was initiated): Four
anemia which warranted dose reduction or temporary interruption ([11]; human, in vivo, po): Twenty of 28 patients
dose-limiting toxicity / response of neutropenia ([11]; human, in vivo): appeared to be the dose-limiting toxicity. Neutropenia responded favorably to reduction in dose of AZT
effect on electrolytes or renal or cardiac function ([11]; human, in vivo): no effect on electrolytes or renal or cardiac function
headache (number of patients) ([11]; human, in vivo): 8 patients
neutropenia (number of patients) ([11]; human, in vivo): 13 patients
generalized pruritus (number of patients) ([11]; one episode, 29 patients): one
bone marrow biopsies ([11]; three patients): megaloblastic changes
reversibility of anemia ([11]; when the drug is discontinued): reversible in most patients when the drug is discontinued
reduction in dosage or interruption of treatment ([12]; 250 mg every 4 hours (1.5 grams daily)): Many patients on AZT required a reduction in dosage or interruption of treatment, primarily because of anemia
deaths (AZT group) ([12]; 250 mg every 4 hours, as of Sept. 18, 1986, 16 in patients receiving placebo): one
patients requiring blood transfusions ([12]; human, in vivo): approximately 25%
decreases in hemoglobin and neutrophils ([12]; second month of therapy, dose decreased or drug discontinued): decreases in hemoglobin and neutrophils occurred during the second month of therapy and appeared to be reversible if the dose was decreased or drug discontinued
patients with greater than 25% reduction in hemoglobin ([12]; vs 13 of 137 patients receiving placebo, preliminary review): 47 of 145
psoriasis clearance ([13]; 800 mg orally per day): completely cleared
time to complete clearing of psoriasis ([13]; 800 mg orally per day): two to three
time to significant improvement in lesion pruritus ([13]; 800 mg orally per day): ≤ 24 h
lesion pruritus ([13]; 800 mg orally per day, within 24 hours): a significant improvement in the lesion pruritus
pruritus after AZT was held for 7 days and restarted at half dose ([13]; AZT held 7 days, restarted at half dose): The pruritus returned temporarily
anemia ([13]; after a month, restarted at half dose): The AZT was held for 7 days after a month for anemia
time until psoriasis began to clear ([13]; in vivo): 24 h
improvement of psoriasis ([13]; over a period several weeks): significant improvement over a period several weeks
nail regrowth and psoriasis at three months ([13]; three months): nail regrowth was normal and the psoriasis was completely clear
